The subject of one series is SKOV3 cells. The series can be described thus: CCK-8 cytotoxicity assay, SKOV3. In kind it is cell-based, human. The following applies: CCK-8, 24 h. An excerpt: (§1) However, despite chemotherapy, many patients die of ovarian cancer recurrence. Inflammatory mediators such as IL-6 and several other cytokines influence drug resistance and recurrence in ovarian cancer.
(§2) The human epithelial ovarian cancer cell lines SKOV3 and A2780 were purchased from the Korean Cell Line Bank (KCLB, Seoul, Republic of Korea) and the European Collection of Cell Cultures (ECACC, Wiltshire, UK), respectively. The cisplatin-resistant A2780 (A2780-cis) and paclitaxel-resistant SKOV3 (SKOV3-TR) cells were obtained from Yonsei University (Institute of Women’s Life Medical Science, Division of Gynecological Oncology, Republic of Korea). SKOV3, SKOV3-TR, A2780, and A2780-cis cells were cultured in the RPMI-1640 medium (Welgene, Daegu, Republic of Korea). SKOV3-TR and A2780-cis cells were cultured in 100 nM paclitaxel (Cayman Chemical Company, Ann Arbor, MI, USA) and 1 µM cisplatin (Dong-A Pharmaceutical Co., Seoul, Republic of Korea), respectively. All the culture media were supplemented with 10% (v/v) fetal bovine serum and 1% penicillin or streptomycin (Gibco-BRL, Gaithersburg, MD, USA), and the cells were maintained at 37 °C in a humidified atmosphere of 5% CO2 and 95% air. Each culture medium was replaced with a fresh medium every 2–3 days.
(§3) A CCK-8 assay was performed to assess cytotoxicity. After seeding 5 × 10^5 cells/300 µL in 48-well plates, the cells were treated with the isolated compounds at 1, 5, 10, 20, 40, and 60 μM concentrations for 24 h. For the CCK-8 analysis, 30 μL of the CCK-8 solution (Dojindo, Kumamoto, Japan) was added to each well, allowed to react for 1 h, and then, the optical density value was measured at 450 nm using an ELISA microplate reader (Epoch, BioTek Instruments, Winooski, VT, USA). All the experiments were performed in triplicates. The IC50 values were calculated from a log([drug]) versus normalized response curve fit using GraphPad Prism version 5.00 for Windows (GraphPad Software, San Diego, CA, USA).
(In general: Tetrazolium assays rely on reduction of a dye to a coloured formazan, in cell work by metabolically active cells.)

Series [1] is described as follows: Cytotoxicity (CC50) in HEK-Blue IL-6 cells. Format: cell-based. The following applies: human, from extrapolated concentration-response curves. The procedure: (§4) The HEK-Blue™ IL-6 cells purchased from InvivoGen (San Diego, CA, USA) were used to seed 3 × 10^4 cells/200 µL in a 96-well plate. Each well was treated with different concentrations (0, 0.1, 1, 5, 10, 50, and 100 μM) of the isolated compounds. Recombinant human IL-6 (BioLegend, San Diego, CA, USA) was administered at 10 ng/mL. After 24 h, 20 μL of the cell suspension was added to 180 μL of QUANTI-Blue™ solution (InvivoGen, San Diego, CA, USA) in a fresh 96-well plate. After incubation at 37 °C for 2 h, the absorbance was measured spectrophotometrically (Epoch, BioTek Instruments, Winooski, VT, USA) at 635 nm. The EC50 values were calculated from a log([drug]) versus normalized response curve fit using GraphPad Prism version 5.00 for Windows (GraphPad Software, San Diego, CA, USA). The CC50 values were calculated from extrapolated concentration–response curves plotted with GraphPad Prism version 5.0 for Windows (GraphPad Software, San Diego, CA, USA) using inhibitory percentages versus the drug concentration logarithm.

Series [2] deals with cisplatin-resistant A2780 (A2780-cis) cells. The series can be described thus: CCK-8 cytotoxicity assay, A2780-cis. Format: cell-based. The settings on record: Homo sapiens, A2780cis, CCK-8, 24 h.
From the text: as §1, §2, §3

Series [3] concerns IL-6 activity in HEK-Blue™ IL-6 cells. The series can be described thus: IL-6 inhibition bioassay using HEK-Blue IL-6 cells (STAT3-inducible SEAP reporter, QUANTI-Blue). In kind it is cell-based, human. The settings on record: for EC50: 10 ng/mL IL-6, 24 h, SEAP readout, read-out: EC50 (IL-6 inhibitory activity); for inhibition of IL-6 activity: 10 ng/ml hIL-6, 24 h (Figure S22). As to the method: We isolated eighteen compounds from P. attenuatum and assessed their inhibitory effects on IL-6 activity using the HEK-Blue™ IL-6 cell line. As the HEK-Blue™ IL-6 cells were transfected with a reporter gene expressing STAT3-inducible secreted embryonic alkaline phosphatase (SEAP), STAT3 was activated, and SEAP was produced when the cells were stimulated with IL-6. The extent of the inhibition of IL-6 downstream signaling by these compounds was assessed in vitro using bazedoxifene (gp130 inhibitor) as a positive control in the HEK-Blue™ IL-6 cells. Bazedoxifene is a newly developed third-generation indole-based estrogen receptor (ER) ligand used in the treatment of postmenopausal osteoporosis, also known as gp130 inhibitor.
The cells were treated with increasing concentrations of the eighteen isolated compounds (0, 0.1, 1, 5, 10, 50, and 100 μM) in the presence of 10 ng/mL IL-6.
as §4

Series [4] relates to paclitaxel-resistant SKOV3 (SKOV3-TR) cells. The series can be described thus: CCK-8 cytotoxicity assay, SKOV3-TR. The settings on record: Homo sapiens, SKOV3TR, CCK-8, 24 h. In kind it is cell-based.
From the text: as §1, §2, §3

The next series has as its system A2780 cells. The series can be described thus: CCK-8 cytotoxicity assay, A2780. In kind it is cell-based, human. The following applies: CCK-8, 24 h.
From the text: as §1, §2, §3

Where [5] appears, read: Homo sapiens, HEK-Blue IL-6, 24 h.

Molecules are shown by their SMILES. Read-outs that look alike come from different tables or passages of the source.

On to `Cc1c(-c2ccc(O)cc2)n(Cc2ccc(OCCN3CCCCCC3)cc2)c2ccc(O)cc12` [Bazedoxifene, bazedoxifene, reference compound], for which the IC50 in the series on SKOV3 cells (Homo sapiens, SK-OV-3, 24 h) was 7.25 ± 0.62 µM; in series [2], 33.8 ± 0.15 µM; in series [4], 20.32 ± 0.2 µM; in the series on A2780 cells (Homo sapiens, A2780, 24 h), 8.2 ± 1.77 µM. The CC50 at 24 h in series [1] was 4.07 ± 0.35 µM. The “TI (therapeutic index, CC50/EC50)” value in series [3] worked out at 2.14 ± 0.78; in series [3] (listed as bazedoxifene) it was 2.14. The EC50 is 1910 ± 430 nM in series [3] and 1900 ± 2840 nM in series [3] (setting [5]).

Take `COc1ccc(CC2=C(Cc3ccc4c(c3)OCO4)C(=O)NC2OC)cc1OC` (stereo not drawn) [Compound 3, piperimide III]: the half-inhibitory concentration (IC50) in the series on SKOV3 cells (Homo sapiens, SK-OV-3, 24 h) stood at 15.76 ± 0.15 µM; in series [2] it was 40.5 ± 1.11 µM; in series [4], 41 ± 1.18 µM; with A2780 cells (Homo sapiens, A2780, 24 h), 17.5 ± 0.19 µM. Besides, the half-maximal cytotoxic concentration (CC50) at 24 h in series [1] was 28.7 ± 0.19 µM. Also, the “inhibition of IL-6 activity” value in series [3] is “approximately 50%”. Further, the EC50 in series [3] (setting [5]) was found to be 3520 ± 140 nM.

For the compound `COc1ccc(C[C@H]2COC(=O)[C@@H]2Cc2ccc(OC)c(OC)c2)cc1OC` [Compound 4, (-)-dimethylmatairesinol], the IC50 was 20.04 ± 0.18 µM in the series on SKOV3 cells (Homo sapiens, SK-OV-3, 24 h); 16.9 ± 0.19 µM in series [2]; 33 ± 0.5 µM in series [4]; 20.6 ± 0.25 µM in the series on A2780 cells (Homo sapiens, A2780, 24 h). In addition, the 50% cytotoxic concentration (CC50) at 24 h in series [1] was 22.6 ± 0.25 µM. Besides, the “inhibition of IL-6 activity” value in series [3] is “approximately 50%”. The half-maximal effective concentration (EC50) in series [3] (setting [5]) amounted to 4060 ± 70 nM.

As for `CC(=O)/C=C/[C@@]1(O)C(C)=CC(=O)CC1(C)C` [Compound 11, (6S)-dehydrovomifoliol], the concentration for half-maximal inhibition (IC50) was 10.7 ± 0.14 µM in the series with SKOV3 cells; around 10 µM with SKOV3 cells (Homo sapiens, SK-OV-3, 24 h); 14.4 ± 0.21 µM in series [2]; 19.9 ± 0.22 µM in series [4]; 9.8 ± 0.11 µM with A2780 cells; around 10 µM with A2780 cells (Homo sapiens, A2780, 24 h). Also, the 50% cytotoxic concentration (CC50) at 24 h in series [1] was 13.72 ± 0.11 µM. Moreover, the “inhibition of IL-6 activity” value in series [3] is “approximately 50%”. The EC50 in series [3] (setting [5]) came out at 2120 ± 40 nM.

In the case of `CC1(C)C[C@@H](O)C[C@@]2(C)OC(=O)C=C12` [Compound 12, (-)-loliolide], the IC50 is 10.7 ± 0.31 µM with SKOV3 cells; around 10 µM with SKOV3 cells (Homo sapiens, SK-OV-3, 24 h); 16.6 ± 0.18 µM in series [2]; 6.44 ± 0.1 µM in series [4]; 8.62 ± 0.1 µM in the series on A2780 cells; around 10 µM in the series with A2780 cells (Homo sapiens, A2780, 24 h). The CC50 at 24 h in series [1] is 10.6 ± 0.1 µM. In series [3], the “inhibition of IL-6 activity” value is listed as “approximately 50%”. For the same compound, the EC50 in series [3] (setting [5]) worked out at 910 ± 40 nM.

Turning to `O=c1cc(-c2ccc(O)cc2)oc2c(C3OC(CO)C(O)C(O)C3OC3OCC(O)(CO)C3O)c(O)cc(O)c12` (stereo not drawn) [Compound 17, ficuflavoside], the concentration for half-maximal inhibition (IC50) came out at 26.6 ± 0.3 µM with SKOV3 cells (Homo sapiens, SK-OV-3, 24 h); 41 ± 0.63 µM in series [2]; 40.3 ± 0.85 µM in series [4]; 21.8 ± 0.45 µM with A2780 cells (Homo sapiens, A2780, 24 h). Also, the CC50 at 24 h in series [1] was 32.5 ± 0.45 µM. For the same compound, in series [3], the “inhibition of IL-6 activity” value was “approximately 50%”. For the same compound, the 50% effective concentration (EC50) in series [3] (setting [5]) was 1310 ± 50 nM.

In general, IC50 refers to the concentration needed to halve the response being measured. Usually CC50 stands for the concentration giving 50% cytotoxicity. Usually EC50 stands for the concentration at which the effect is half-maximal.

The record behind these values is paper PMC11242996, “IL-6 Inhibitory Compounds from the Aerial Parts of Piper attenuatum and Their Anticancer Activities on Ovarian Cancer Cell Lines” (Molecules, 2024).
